Drawing on paper doi:10.1101/2025.01.28.635346v1 (bioRxiv, 2025), this text covers IC50 for four molecules.

Assay [1] concerns the target T1, integrin αvβ6 (Homo sapiens, UniProt P06756+P18564). The assay can be described thus: ELISA competition assay, integrin αvβ6 binding to LAP. As to conditions: mean.
Assay [2] deals with T2, integrin αvβ8 (Homo sapiens, UniProt P06756+P26012). Briefly: ELISA competition assay, integrin αvβ8 binding to LAP. A general note: An ELISA detects its analyte on a solid surface through an enzyme-linked reagent.
The target of assay [3] is integrin αvβ3 (Homo sapiens, UniProt P05106+P06756). The assay can be described thus: ELISA competition assay, integrin αvβ3. Format: binding.
Assay [4] concerns the target integrin αvβ1 (Homo sapiens, UniProt P05556+P06756). The assay can be described thus: ELISA competition assay, integrin αvβ1. Format: binding.
In assay [5] the target is integrin αvβ5 (Homo sapiens, UniProt P06756+P18084). The assay can be described thus: ELISA competition assay, integrin αvβ5. Format: binding.
For assay [6], the target named is integrin α5β1 (Homo sapiens, UniProt P05556+P08648). Briefly: ELISA competition assay, integrin α5β1. Format: binding.
For assay [7], the target named is integrin α8β1 (Homo sapiens, UniProt P05556+P53708). Briefly: ELISA competition assay, integrin α8β1. Format: binding.
For assay [8], the target named is T3, Mouse αvβ6 (Mus musculus, UniProt P43406+Q9Z0T9).
T3 sequence (P43406 31-988 limits assumed): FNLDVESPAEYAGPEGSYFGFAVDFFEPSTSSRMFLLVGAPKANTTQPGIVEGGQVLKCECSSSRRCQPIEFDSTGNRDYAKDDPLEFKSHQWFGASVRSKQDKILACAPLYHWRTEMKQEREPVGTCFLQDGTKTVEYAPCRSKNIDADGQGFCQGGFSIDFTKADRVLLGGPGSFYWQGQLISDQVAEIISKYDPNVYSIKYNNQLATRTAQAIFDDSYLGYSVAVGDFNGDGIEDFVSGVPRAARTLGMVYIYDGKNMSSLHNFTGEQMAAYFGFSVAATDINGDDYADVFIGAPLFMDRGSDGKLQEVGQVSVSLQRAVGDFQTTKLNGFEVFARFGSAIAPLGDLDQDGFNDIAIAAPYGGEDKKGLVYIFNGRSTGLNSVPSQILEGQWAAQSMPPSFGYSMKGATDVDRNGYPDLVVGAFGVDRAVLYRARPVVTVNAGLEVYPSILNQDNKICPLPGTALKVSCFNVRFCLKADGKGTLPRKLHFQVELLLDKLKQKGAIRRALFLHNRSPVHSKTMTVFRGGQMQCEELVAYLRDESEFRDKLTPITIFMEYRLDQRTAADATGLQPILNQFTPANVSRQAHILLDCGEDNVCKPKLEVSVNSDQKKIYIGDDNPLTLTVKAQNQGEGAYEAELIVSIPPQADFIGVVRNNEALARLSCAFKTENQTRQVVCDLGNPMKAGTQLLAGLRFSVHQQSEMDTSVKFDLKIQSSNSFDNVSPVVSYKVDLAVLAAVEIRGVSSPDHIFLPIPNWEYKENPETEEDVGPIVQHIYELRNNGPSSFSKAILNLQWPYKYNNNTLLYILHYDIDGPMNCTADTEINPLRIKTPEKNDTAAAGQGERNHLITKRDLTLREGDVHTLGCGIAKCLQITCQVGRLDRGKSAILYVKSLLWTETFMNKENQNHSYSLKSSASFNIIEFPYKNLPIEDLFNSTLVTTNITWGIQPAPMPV
T3 sequence (Q9Z0T9 22-707 limits assumed): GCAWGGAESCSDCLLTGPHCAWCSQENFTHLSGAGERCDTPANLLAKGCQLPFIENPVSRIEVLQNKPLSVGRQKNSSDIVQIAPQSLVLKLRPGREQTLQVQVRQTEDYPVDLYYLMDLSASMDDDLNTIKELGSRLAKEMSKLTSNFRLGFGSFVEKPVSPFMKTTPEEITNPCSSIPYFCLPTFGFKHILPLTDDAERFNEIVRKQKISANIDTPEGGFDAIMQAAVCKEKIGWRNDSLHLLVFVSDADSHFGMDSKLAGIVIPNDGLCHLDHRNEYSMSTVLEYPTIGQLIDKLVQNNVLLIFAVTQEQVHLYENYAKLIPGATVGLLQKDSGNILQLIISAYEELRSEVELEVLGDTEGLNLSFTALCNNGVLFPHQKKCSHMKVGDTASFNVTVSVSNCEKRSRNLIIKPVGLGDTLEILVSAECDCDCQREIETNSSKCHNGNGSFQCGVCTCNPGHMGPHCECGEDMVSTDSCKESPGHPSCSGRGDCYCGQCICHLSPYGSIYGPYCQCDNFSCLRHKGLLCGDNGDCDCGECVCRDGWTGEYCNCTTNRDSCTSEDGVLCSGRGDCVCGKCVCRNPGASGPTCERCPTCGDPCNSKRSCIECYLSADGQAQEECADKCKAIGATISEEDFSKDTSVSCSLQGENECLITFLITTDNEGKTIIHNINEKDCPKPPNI
Briefly: ELISA competition assay, mouse integrin αvβ6. Format: binding.

Assay [9] concerns the target T1, integrin αvβ6. Briefly: AlphaLISA competition assay vs LAP, biotinylated αvβ6. It counts as binding.
The target of assay [10] is T2, integrin αvβ8. Briefly: AlphaLISA competition assay vs LAP, biotinylated αvβ8. It counts as binding. For orientation: Bead proximity is the source of the signal in Alpha formats.
In assay [11] the target is T4, integrin αIIbβ3 (Homo sapiens, UniProt P05106+P08514).
T4 sequence (P08514 32-993 limits assumed): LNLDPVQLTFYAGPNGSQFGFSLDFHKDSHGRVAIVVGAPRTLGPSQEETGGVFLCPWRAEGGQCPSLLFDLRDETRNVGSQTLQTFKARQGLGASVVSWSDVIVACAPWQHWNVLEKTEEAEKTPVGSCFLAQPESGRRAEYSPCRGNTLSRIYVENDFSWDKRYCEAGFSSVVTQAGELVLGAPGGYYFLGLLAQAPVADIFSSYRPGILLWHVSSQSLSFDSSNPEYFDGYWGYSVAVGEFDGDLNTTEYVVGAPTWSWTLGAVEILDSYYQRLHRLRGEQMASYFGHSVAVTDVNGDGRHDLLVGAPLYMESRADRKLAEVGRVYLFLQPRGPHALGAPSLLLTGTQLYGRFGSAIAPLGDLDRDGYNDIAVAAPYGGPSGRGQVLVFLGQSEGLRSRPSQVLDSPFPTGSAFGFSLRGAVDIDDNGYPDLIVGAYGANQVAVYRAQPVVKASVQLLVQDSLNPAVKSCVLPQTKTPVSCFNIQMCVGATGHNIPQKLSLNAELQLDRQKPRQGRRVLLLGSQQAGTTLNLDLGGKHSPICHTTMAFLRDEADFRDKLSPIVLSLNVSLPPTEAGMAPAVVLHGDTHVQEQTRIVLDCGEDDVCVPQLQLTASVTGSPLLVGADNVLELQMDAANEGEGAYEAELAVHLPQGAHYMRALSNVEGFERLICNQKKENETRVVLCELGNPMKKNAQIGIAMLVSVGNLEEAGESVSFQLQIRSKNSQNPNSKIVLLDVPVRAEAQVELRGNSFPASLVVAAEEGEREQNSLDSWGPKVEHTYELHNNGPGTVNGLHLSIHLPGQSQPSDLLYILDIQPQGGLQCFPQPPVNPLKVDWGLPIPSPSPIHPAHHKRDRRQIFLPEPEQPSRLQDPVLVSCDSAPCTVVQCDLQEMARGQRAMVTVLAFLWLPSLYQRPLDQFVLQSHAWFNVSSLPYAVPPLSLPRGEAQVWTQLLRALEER
T4 sequence (P05106 27-718 limits assumed): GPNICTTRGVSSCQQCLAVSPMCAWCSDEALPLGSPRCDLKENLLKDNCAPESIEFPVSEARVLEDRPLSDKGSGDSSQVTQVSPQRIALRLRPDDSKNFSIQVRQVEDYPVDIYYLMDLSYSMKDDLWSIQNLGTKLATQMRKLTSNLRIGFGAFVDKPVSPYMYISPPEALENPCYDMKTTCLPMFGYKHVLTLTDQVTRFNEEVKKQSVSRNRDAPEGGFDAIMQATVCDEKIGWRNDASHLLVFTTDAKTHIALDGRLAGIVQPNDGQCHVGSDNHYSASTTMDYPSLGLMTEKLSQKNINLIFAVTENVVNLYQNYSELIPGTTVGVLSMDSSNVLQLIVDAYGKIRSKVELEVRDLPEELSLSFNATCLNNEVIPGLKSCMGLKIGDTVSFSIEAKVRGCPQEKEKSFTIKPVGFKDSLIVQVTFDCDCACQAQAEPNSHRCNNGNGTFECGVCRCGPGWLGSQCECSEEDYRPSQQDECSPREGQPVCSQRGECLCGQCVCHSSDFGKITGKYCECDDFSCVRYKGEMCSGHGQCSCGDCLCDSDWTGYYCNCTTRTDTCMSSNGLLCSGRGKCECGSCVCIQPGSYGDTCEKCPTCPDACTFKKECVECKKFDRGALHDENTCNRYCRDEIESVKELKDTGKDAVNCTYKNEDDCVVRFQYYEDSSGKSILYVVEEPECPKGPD
Briefly: ELISA competition assay, integrin αIIbβ3. It counts as binding.

Setting [12] is: αvβ6 IC50, ELISA competition vs LAP, n ≥ 3.

Where two headings read alike, the source gives them in different places. Bridge positions count the residues as written; N and C are the ends. Side chains are listed from the residue outwards. Peptide text beside a SMILES is read from it. * marks the point of attachment. Butanoyl(4-(4-I-phenyl)) = O=C(CCCc1ccc(I)cc1)*; PEG2 = NCCOCCOCCC(=O)O

A word on the IC50: it is the midpoint of a concentration-inhibition curve.

`COc1ccc([C@H](CC(=O)O)N2CCN(CCCc3ccc4c(n3)NCCC4)C2=O)cn1` [MK-0429, reference compound]: the IC50 is 1 nM in assay [1] (read-out: Human αvß6 IC50, ELISA run in triplicate, Table S1); 1.3 nM in [1] (read-out: αvβ6 IC50, ELISA competition vs LAP, n ≥ 3); 0.7 nM in assay [2] (read-out: αvβ8 IC50, ELISA competition vs LAP, mean, n ≥ 3); 0.7 nM in assay [3] (read-out: αvβ3 IC50, ELISA competition, mean, n ≥ 3); 1 nM in assay [4] (read-out: αvβ1 IC50, ELISA competition); 0.08 nM in [5] (read-out: αvβ5 IC50, ELISA competition). Further, the IC50 in [6] (read-out: α5β1 IC50, ELISA competition) turned out to be 18 nM; in assay [7] (read-out: α8β1 IC50, ELISA competition), 9 nM; in [8] (read-out: Mouse αvß6 IC50, ELISA run in triplicate, mean, Table S1) it was 2 nM.

In the case of `CC[C@H](C)[C@H](NC(=O)[C@H](CC(C)C)NC(=O)[C@H](CC(=O)O)NC(=O)CNC(=O)[C@H](CCCNC(=N)N)NC(=O)[C@H](CCC(N)=O)NC(=O)[C@H](Cc1ccccc1)NC(=O)[C@H](Cc1ccc(O)cc1)NC(=O)[C@@H]1CCC(=O)NCC(=O)NCC(=O)N[C@@H](C)C(=O)NCC(=O)N[C@@H](Cc2c[nH]cn2)C(=O)N[C@@H](C(C)C)C(=O)N2CCC[C@H]2C(=O)N1)C(=O)N[C@@H](CO)C(=O)N[C@@H](Cc1ccccc1)C(=O)N[C@@H](Cc1ccc(O)cc1)C(=O)NCC(=O)O` [lassotide 21] (GGAGHVPEYFQRGDLISFYG-OH; lactam N-8; C-terminus assumed), the half-inhibitory concentration (IC50) was 40 nM in assay [1] (Human αvß6 IC50, ELISA run in triplicate, Table S1); 44 nM in [8]; 16 nM in [9]; 39 nM in assay [10].

On to `CC(C)C[C@H](NC(=O)[C@H](CC(=O)O)NC(=O)CNC(=O)[C@H](CCCNC(=N)N)NC(=O)[C@@H](NC(=O)[C@H](Cc1ccccc1)NC(=O)[C@H](Cc1ccc(O)cc1)NC(=O)[C@@H]1CCC(=O)NCC(=O)NCC(=O)N[C@@H](CCCCN)C(=O)NCC(=O)N[C@@H](Cc2c[nH]cn2)C(=O)N[C@@H](C(C)C)C(=O)N2CCC[C@H]2C(=O)N1)C(C)C)C(=O)N[C@@H](CCC(N)=O)C(=O)N[C@@H](CO)C(=O)N[C@@H](Cc1ccccc1)C(=O)N[C@@H](Cc1ccc(O)cc1)C(=O)NCC(=O)O` [lassotide 37] (GGKGHVPEYFVRGDLQSFYG-OH; lactam N-8; C-terminus assumed), for which the IC50 is 3.1 nM in assay [1] (setting [12]); 9 nM in assay [2]; 186 nM in assay [3]; 21 nM in assay [4]; > 10000 nM in [5]; 394 nM in assay [11]. For the same molecule, the half-maximal inhibitory concentration (IC50) was 944 nM in assay [6] and > 10000 nM in assay [7].

On to `CC(C)C[C@H](NC(=O)[C@H](CC(=O)O)NC(=O)CNC(=O)[C@H](CCCNC(=N)N)NC(=O)[C@@H](NC(=O)[C@H](Cc1ccccc1)NC(=O)[C@H](Cc1ccc(O)cc1)NC(=O)[C@@H]1CCC(=O)NCC(=O)NCC(=O)N[C@@H](CCCCNC(=O)CCOCCOCCNC(=O)CCCc2ccc(I)cc2)C(=O)NCC(=O)N[C@@H](Cc2c[nH]cn2)C(=O)N[C@@H](C(C)C)C(=O)N2CCC[C@H]2C(=O)N1)C(C)C)C(=O)N[C@@H](CCC(N)=O)C(=O)N[C@@H](CO)C(=O)N[C@@H](Cc1ccccc1)C(=O)N[C@@H](Cc1ccc(O)cc1)C(=O)NCC(=O)O` [lassotide 48] (GGK([PEG2-Butanoyl(4-(4-I-phenyl))])GHVPEYFVRGDLQSFYG-OH; lactam N-8; C-terminus assumed), for which the IC50 in assay [1] (setting [12]) is 0.7 nM; in assay [2], 0.8 nM; in [3], 315 nM; in [4], 46 nM; in assay [5], > 10000 nM; in assay [11] it was 446 nM. The 50% inhibitory concentration (IC50) in assay [6] was 2590 nM; in [7], > 10000 nM.
